Experimental data published in ChEMBL document CHEMBL4304757, “Synthetic heterocyclic candidates as promising α-glucosidase inhibitors: An overview” (Eur J Med Chem, 2019).

molecular target: not listed separately; assay: Inhibition of yeast alpha-glucosidase using p-nitrophenyl-alpha-d-glucopyranoside as substrate preincubated for 10 mins followed by substrate addition measured after 30 mins; parameters: species or system Saccharomyces cerevisiae

| SMILES | IC50 [µM] |
| --- | --- |
| Cc1cc2nc(-c3ccc(C(=O)N/N=C/c4cc(O)c(O)c(O)c4)cc3)[nH]c2cc1C | 8.4 |
| Cc1cc2nc(-c3ccc(C(=O)NNC(=S)Nc4ccccc4F)cc3)[nH]c2cc1C | 35 to 297 |
| COc1cccc(NC(=S)NNC(=O)c2ccc(-c3nc4cc(C)c(C)cc4[nH]3)cc2)c1 | 35 to 297 |
| COc1ccc(-n2c(-c3cn(-c4ccccc4)nc3-c3cc4ccccc4oc3=O)nc(-c3ccccc3)c2-c2ccccc2)cc1 | 2.5 to 46 |
| CCCn1c(-c2cn(-c3ccccc3)nc2-c2cc3ccccc3oc2=O)nc(-c2ccccc2)c1-c1ccccc1 | 2.5 to 46 |
| Cc1cc2nc(-c3ccc(C(=O)N/N=C/c4ccncc4)cc3)[nH]c2cc1C | 8.4 to 179 |
| Cc1cc2nc(-c3ccc(C(=O)NNC(=S)Nc4ccc(Cl)c(Cl)c4)cc3)[nH]c2cc1C | 35 to 297 |
| Cc1cc2nc(-c3ccc(C(=O)N/N=C/c4ccc(O)c(Br)c4)cc3)[nH]c2cc1C | 8.4 to 179 |
| Cc1cccc(/C=N/NC(=O)c2ccc(-c3nc4cc(C)c(C)cc4[nH]3)cc2)c1 | 8.4 to 179 |
| Cc1nn(-c2ccc([N+](=O)[O-])cc2)c(C)c1-c1nc(-c2ccccc2)c(-c2ccccc2)[nH]1 | 2.7 to 23 |
| Cc1cc2nc(-c3ccc(C(=O)NNC(=S)Nc4ccc(Cl)cc4)cc3)[nH]c2cc1C | 35 to 297 |
| Cc1ccc(-n2c(-c3cn(-c4ccccc4)nc3-c3cc4cc(Br)ccc4oc3=O)nc(-c3ccccc3)c2-c2ccccc2)cc1 | 2.5 to 46 |
| Cc1nn(-c2ccc(Nc3cccc(Cl)c3)nn2)c(C)c1[N+](=O)[O-] | 19 |
| c1ccc(-c2nn(-c3ccccc3)cc2-c2nc(-c3ccccc3)c(-c3ccccc3)[nH]2)cc1 | 2.7 to 23 |
| COc1cccc(/C=N/NC(=O)c2ccc(-c3nc4cc(C)c(C)cc4[nH]3)cc2)c1 | 8.4 to 179 |
| O=c1oc2ccc(Br)cc2cc1-c1nn(-c2ccccc2)cc1-c1nc(-c2ccccc2)c(-c2ccccc2)n1-c1ccc(Br)cc1 | 2.5 to 46 |
| Cc1cc2nc(-c3ccc(C(=O)N/N=C/c4ccc(O)cc4O)cc3)[nH]c2cc1C | 8.4 to 9.9 |
| Cc1cc2nc(-c3ccc(C(=O)NNC(=S)Nc4ccc(F)cc4)cc3)[nH]c2cc1C | 35 to 297 |
| O=c1oc2ccccc2cc1-c1nn(-c2ccccc2)cc1-c1nc(-c2ccccc2)c(-c2ccccc2)n1-c1ccc(Cl)cc1 | 2.5 to 46 |
| Cc1cc2nc(-c3ccc(C(=O)N/N=C/c4cccc(Cl)c4)cc3)[nH]c2cc1C | 8.4 to 179 |
| COc1ccc(/C=N/NC(=O)c2ccc(-c3nc4cc(C)c(C)cc4[nH]3)cc2)cc1O | 8.4 to 179 |
| COc1ccc(-n2c(-c3cn(-c4ccccc4)nc3-c3cc4cc(Br)ccc4oc3=O)nc(-c3ccccc3)c2-c2ccccc2)cc1 | 2.5 to 46 |

Other lines, results leading:

| IC50 [µM] | SMILES |
| --- | --- |
| 35 to 297 | Cc1ccc(NC(=S)NNC(=O)c2ccc(-c3nc4cc(C)c(C)cc4[nH]3)cc2)cc1 |
| 8.4 to 179 | Cc1ccc(/C=N/NC(=O)c2ccc(-c3nc4cc(C)c(C)cc4[nH]3)cc2)cc1 |
| 8.4 to 9.9 | Cc1cc2nc(-c3ccc(C(=O)N/N=C/c4cc(O)ccc4O)cc3)[nH]c2cc1C |
| 8.4 to 179 | COc1ccc(/C=N/NC(=O)c2ccc(-c3nc4cc(C)c(C)cc4[nH]3)cc2)cc1 |
| 8.4 to 179 | Cc1cc2nc(-c3ccc(C(=O)N/N=C/c4ccco4)cc3)[nH]c2cc1C |
| 35 to 297 | Cc1cc2nc(-c3ccc(C(=O)NNC(=S)Nc4ccc(Br)cc4)cc3)[nH]c2cc1C |
| 8.4 to 179 | Cc1cc2nc(-c3ccc(C(=O)N/N=C/c4ccccn4)cc3)[nH]c2cc1C |
| 35 to 297 | Cc1cc2nc(-c3ccc(C(=O)NNC(=S)Nc4cccc(F)c4)cc3)[nH]c2cc1C |
| 35 to 297 | Cc1cc2nc(-c3ccc(C(=O)NNC(=S)Nc4cccc(Br)c4)cc3)[nH]c2cc1C |
| 2.7 to 23 | COc1ccc(-c2nn(-c3ccccc3)cc2-c2nc(-c3ccccc3)c(-c3ccccc3)[nH]2)cc1 |
| 2.7 to 23 | O=[N+]([O-])c1cccc(-c2nn(-c3ccccc3)cc2-c2nc(-c3ccccc3)c(-c3ccccc3)[nH]2)c1 |
| 2.7 to 23 | O=c1oc2ccc(Br)cc2cc1-c1nn(-c2ccccc2)cc1-c1nc(-c2ccccc2)c(-c2ccccc2)[nH]1 |
| 2.7 to 23 | O=[N+]([O-])c1ccc(-n2cc(-c3nc(-c4ccccc4)c(-c4ccccc4)[nH]3)c(-c3ccccc3)n2)cc1 |
| 8.4 to 179 | Cc1cc2nc(-c3ccc(C(=O)N/N=C/c4ccc(Cl)cc4)cc3)[nH]c2cc1C |
| 8.4 to 179 | Cc1cc2nc(-c3ccc(C(=O)N/N=C/c4cccnc4)cc3)[nH]c2cc1C |
| 8.4 to 179 | Cc1cc2nc(-c3ccc(C(=O)N/N=C/c4ccccc4C)cc3)[nH]c2cc1C |
| 35 | Cc1cc2nc(-c3ccc(C(=O)NNC(=S)Nc4ccc([N+](=O)[O-])cc4)cc3)[nH]c2cc1C |

molecular target: T1, Alpha glucosidase (Homo sapiens, UniProt O43451+P10253+P14410+Q2M2H8); assay: Inhibition of alpha-glucosidase (unknown origin) using p-nitrophenyl-alpha-d-glucopyranoside as substrate preincubated for 15 mins followed by substrate addition measured after 30 mins by spectrophotometric analysis; assay type: protein assay

| SMILES | IC50 [µM] |
| --- | --- |
| Clc1ccc2sc(SCc3cn(Cc4ccccc4Br)nn3)nc2c1 | 20 to 61 |
| Cc1ccc(-c2cc(-c3cccc(Br)c3)nc(SCc3ccc(F)cc3)n2)cc1 | 19 to 38 |
| Clc1ccc2sc(SCc3cn(Cc4ccc(Br)cc4)nn3)nc2c1 | 20 to 61 |
| Cc1ccc(-c2cc(-c3ccc(Br)cc3)nc(SCc3ccc(Cl)cc3)n2)cc1 | 19 to 38 |
| Clc1ccc2sc(SCc3cn(Cc4ccccc4Cl)nn3)nc2c1 | 20 to 61 |
| Fc1ccccc1CSc1nc(-c2ccc(Br)cc2)cc(-c2ccc(Br)cc2)n1 | 19 to 38 |
| Fc1cccc(Cn2cc(CSc3nc4ccccc4s3)nn2)c1 | 20 to 61 |
| Clc1cc(Cl)cc(Cn2cc(CSc3nc4ccccc4s3)nn2)c1 | 20 to 61 |
| Fc1cccc(CSc2nc(-c3ccc(Br)cc3)cc(-c3cccc(Br)c3)n2)c1 | 19 to 38 |
| Fc1ccccc1Cn1cc(CSc2nc3cc(Cl)ccc3s2)nn1 | 20 to 61 |
| Cc1ccc(-c2cc(-c3cccc(Br)c3)nc(SCc3ccccc3Cl)n2)cc1 | 19 to 38 |
| Cc1ccc(-c2cc(-c3ccc(Br)cc3)nc(SCc3ccccc3Br)n2)cc1 | 19 to 38 |
| Clc1ccc(Cn2cc(CSc3nc4cc(Cl)ccc4s3)nn2)cc1 | 20 to 61 |
| Brc1ccc(Cn2cc(CSc3nc4ccccc4s3)nn2)cc1 | 20 to 61 |
| Fc1cccc(CSc2nc(-c3ccc(Br)cc3)cc(-c3ccc(Br)cc3)n2)c1 | 19 to 38 |

The next lines start with the values.

| IC50 [µM] | SMILES |
| --- | --- |
| 20 to 61 | Clc1ccc2sc(SCc3cn(Cc4ccccc4)nn3)nc2c1 |
| 20 to 61 | Brc1ccccc1Cn1cc(CSc2nc3ccccc3s2)nn1 |
| 20 to 61 | CC(C)(C)c1ccc(Cn2cc(CSc3nc4ccccc4s3)nn2)cc1 |
| 20 | CC(C)(C)c1ccc(Cn2cc(CSc3nc4cc(Cl)ccc4s3)nn2)cc1 |
| 20 to 61 | Fc1ccc(Cn2cc(CSc3nc4cc(Cl)ccc4s3)nn2)cc1 |
| 19 to 38 | Clc1ccccc1CSc1nc(-c2ccc(Br)cc2)cc(-c2ccc(Br)cc2)n1 |
| 2.5 | O=C(COc1ccc2ccc(=O)oc2c1)N/N=C1\C(=O)N(Cc2ccccc2F)c2ccc(Cl)cc21 |
| 19 to 38 | Clc1ccc(CSc2nc(-c3ccc(Br)cc3)cc(-c3ccc(Br)cc3)n2)cc1 |
| 20 to 61 | Clc1cc(Cl)cc(Cn2cc(CSc3nc4cc(Cl)ccc4s3)nn2)c1 |
| 19 to 38 | Cc1ccc(-c2cc(-c3cccc(Br)c3)nc(SCc3cccc(F)c3)n2)cc1 |

molecular target: T1, Alpha glucosidase; assay: Inhibition of alpha-glucosidase (unknown origin) using p-nitrophenyl-alpha-d-glucopyranoside as substrate preincubated for 5 mins followed by substrate addition measured after 5 mins; assay type: protein assay

| SMILES | IC50 [µM] |
| --- | --- |
| Clc1ccc(-c2nnc(/N=C/c3ccc(Cl)cc3Cl)s2)cc1 | 2.3 to 25 |
| COc1ccc(Br)cc1/C=N/c1nnc(-c2cccc([N+](=O)[O-])c2)s1 | 2.3 to 25 |
| O=C(N/N=C/c1ccc([N+](=O)[O-])cc1)c1cc2ccccc2oc1=O | 1.1 to 36 |
| Cc1cccc(/C=N/NC(=O)c2cc3ccccc3oc2=O)c1 | 1.1 to 36 |
| COc1ccc(Br)cc1-c1nnc(N)s1 | 2.3 to 38 |
| COc1ccc(Br)cc1/C=N/c1nnc(-c2ccc(Cl)cc2)s1 | 2.3 to 25 |
| O=C(N/N=C/c1ccncc1)c1cc2ccccc2oc1=O | 1.1 to 36 |
| O=C(N/N=C/c1ccccc1)c1cc2ccccc2oc1=O | 1.1 to 36 |
| Clc1ccc(-c2nnc(/N=C/c3ccc(OCc4ccccc4)cc3)s2)cc1 | 2.3 to 25 |
| Nc1nnc(-c2ccc(Cl)cc2)s1 | 2.3 to 38 |
| COc1ccc(/C=N/NC(=O)c2cc3ccccc3oc2=O)c(O)c1 | 1.1 to 36 |
| Nc1nnc(-c2c3ccccc3cc3ccccc23)s1 | 2.3 to 38 |
| Nc1nnc(-c2ccc([N+](=O)[O-])cc2)s1 | 2.3 to 38 |
| COc1cc(-c2nnc(/N=C/c3ccc(O)cc3)s2)ccc1OCc1ccccc1 | 2.3 to 25 |
| O=[N+]([O-])c1ccc(/C=N/c2nnc(-c3ccc(Cl)cc3)s2)cc1 | 2.3 to 25 |
| COc1ccc(/C=N/NC(=O)c2cc3ccccc3oc2=O)cc1 | 1.1 to 36 |
| Nc1nnc(-c2ccc(O)cc2)s1 | 2.3 |
| COc1ccc(O)c(/C=N/NC(=O)c2cc3ccccc3oc2=O)c1 | 1.1 to 36 |
| Oc1ccc(/C=N/c2nnc(-c3ccc(Cl)cc3)s2)cc1 | 2.3 |
| O=C(N/N=C/c1cccc(O)c1O)c1cc2ccccc2oc1=O | 1.1 |
| O=C(N/N=C/c1ccccc1F)c1cc2ccccc2oc1=O | 1.1 to 36 |
| O=C(N/N=C/c1ccccn1)c1cc2ccccc2oc1=O | 1.1 to 36 |
| Nc1nnc(-c2cc3ccccc3cc2O)s1 | 2.3 to 38 |
| Nc1nnc(-c2ccc(OCc3ccccc3)cc2)s1 | 2.3 to 38 |
| Nc1nnc(-c2ccccc2[N+](=O)[O-])s1 | 2.3 to 38 |

Next, values leading:

| IC50 [µM] | SMILES |
| --- | --- |
| 2.3 to 25 | O=[N+]([O-])c1cccc(-c2nnc(/N=C/c3ccc(Cl)cc3Cl)s2)c1 |
| 2.3 to 38 | Nc1nnc(-c2ccc(Cl)cc2Cl)s1 |
| 1.1 to 36 | O=C(N/N=C/c1ccccc1[N+](=O)[O-])c1cc2ccccc2oc1=O |
| 2.3 to 38 | Nc1nnc(-c2ccc(Cl)c(OCc3ccccc3)c2)s1 |
| 2.3 to 25 | O=[N+]([O-])c1ccccc1/C=N/c1nnc(-c2ccc(Cl)cc2)s1 |
| 1.1 to 36 | O=C(N/N=C/c1ccc(O)cc1O)c1cc2ccccc2oc1=O |
| 2.3 to 38 | CN(C)c1ccc(-c2nnc(N)s2)cc1 |
| 1.1 to 36 | Cc1ccc(/C=N/NC(=O)c2cc3ccccc3oc2=O)cc1 |
| 2.3 to 38 | Nc1nnc(-c2cccc([N+](=O)[O-])c2)s1 |
| 1.1 to 36 | O=C(N/N=C/c1ccccc1O)c1cc2ccccc2oc1=O |
| 1.1 to 36 | O=C(N/N=C/c1cccc(F)c1)c1cc2ccccc2oc1=O |
| 1.1 to 36 | Cc1ccccc1/C=N/NC(=O)c1cc2ccccc2oc1=O |
| 1.1 to 36 | O=C(N/N=C/c1ccc(F)cc1)c1cc2ccccc2oc1=O |
| 2.3 to 38 | COc1cccc(-c2nnc(N)s2)c1OC |
